Our source for the IC50 values is patent US20160083391A1, “TRICYCLIC PIPERAZINE DERIVATIVE” (Sunovion Pharmaceuticals Inc., priority 2014, published 2016).

For this assay, the system named is PDE1. The assay is described as follows: In vitro HTRF PDE1 inhibition assay. To be noted: HTRF cGMP assay, 100 nM cyclic GMP, PDE (1A3, 1B or 1C) with calmodulin, 45 minutes at 37° C.; isoform of the tabulated values not stated. The assay is classed as biochemical. From the text:
An exemplary procedure for the in vitro Homogenous Time Resolved Fluorescence assay, which can be used to determine the inhibitory action of compounds of the invention toward. PDE1 or its isoforms, follows.
The HTRF PDE1 assay utilized the HTRF (Homogenous Time Resolved Fluorescence) technology, which is based on the competition between unlabeled cyclic nucleotide and cyclic nucleotide labeled with XL665 for the binding to cyclic nucleotide-specific antibody labeled with cryptate. The HTRF signal is thus inversely proportional to the concentration of cyclic nucleotide being measured. Since phosphodiesterases break down cyclic nucleotides the HTRF signal was used to determine PDE activity.
The Cisbio cGMP HTRF assay kit (Cat no: 62GM2PEC) was utilized. Cyclic GMP was diluted to 200 nM in HTRF assay buffer (1 mM CaCl2, 10 mM MgCl2, 10 mM Tris-HCl, 0.1% BSA, pH7.4). 10 μl of compound or DMSO was diluted in 200 nM cyclic GMP solution and added to wells of a 96 well white plate to give 100 nM cyclic GMP in 1% DMSO final concentration. PDE (1A3, 1B or 1C) was diluted to 2× working concentration in HTRF assay buffer with […] Calmodulin, and 10 μl was added to initiate the reaction. The plate was then incubated for 45 minutes at 37° C. d2-Labelled cyclic GMP and anti-cGMP cryptate were diluted in 50 mM phosphate buffer, 0.8M KF, 1% Triton X100, 0.2% BSA, pH7.0. Following incubation 10 μl d2-cGMP, then 10 μl anti cGMP cryptate were added to each well and the plate was incubated for 45 minutes at room temperature. The plate was then read on Perkin Elmer Victor at 2 different FRET readings ex/emm 340 nm/665 nm and 340 nm/615 nm.
Compounds having an IC50 of <1 μM, are denoted as +++. Compounds having an IC50 of 1-10 μM, are denoted as ++. Compounds having an IC50 of >10 μM, are denoted as +.
In general terms: Time-resolved FRET reads energy transfer from a long-lived donor to a nearby acceptor.
In turn, `CC(C)n1ncc2c(=O)n3c(nc21)CN(c1ccc(F)cc1)CC3` [Compound I-142, 8-(4-Fluorophenyl)-1-isopropyl-6,7,8,9-tetrahydropyrazino[1,2-a]pyrazolo[3,4-d]pyrimidin-4(1H)-one] displayed an IC50 of less than 1 µM.

On to `COc1ccc(CN2CCn3c(nc4c(ncn4C4CCCC4)c3=O)C2)cc1` [Compound I-125, 3-Cyclopentyl-6-(4-methoxybenzyl)-5,6,7,8-tetrahydropyrazino[1,2-a]purin-10(3H)-one], for which the half-maximal inhibitory concentration (IC50) is more than 10 µM.

`CC(C)c1nn(C)c2c(=O)n3c(nc12)C(Cc1ccccc1)N(C)CC3` (racemic) [Compound I-42, (±)-5-Benzyl-3-isopropyl-1,6-dimethyl-5,6,7,8-tetrahydropyrazino[1,2-a]pyrazolo[4,3-d]pyrimidin-10(1H)-one] returned an IC50 of more than 10 µM.

For the compound `COc1cccc(N2CCn3c(nn4c(C(C)C)ncc4c3=O)C2)c1` [Compound I-174, 3-Isopropyl-7-(3-methoxyphenyl)-8,9-dihydro-6H-imidazo[5,1-f]pyrazino[2,1-c][1,2,4]triazin-11(7H)-one], the half-inhibitory concentration (IC50) was less than 1 µM.

With `CC(C)CC1Cn2c(nc3c(cnn3C(C)C)c2=O)CN1c1ccc(Cl)cc1` (racemic) [Compound I-172, (±)-8-(4-Chlorophenyl)-7-isobutyl-1-isopropyl-6,7,8,9-tetrahydropyrazino[1,2-a]pyrazolo[3,4-d]pyrimidin-4(1H)-one], the IC50 was less than 1 µM.

In the case of `O=c1c2cnn(C3CCOCC3)c2nc2n1CCN(c1ccc(Cl)cc1)C2` [Compound I-212, 8-(4-Chlorophenyl)-1-(tetrahydro-2H-pyran-4-yl)-6,7,8,9-tetrahydropyrazino[1,2-a]pyrazolo[3,4-d]pyrimidin-4(1H)-one], the 50% inhibitory concentration (IC50) was less than 1 µM.

`CC(C)n1ncc2c(=O)n3c(nc21)CN(c1cccnc1)CC3` [Compound I-143, 1-Isopropyl-8-(pyridin-3-yl)-6,7,8,9-tetrahydropyrazino[1,2-a]pyrazolo[3,4-d]pyrimidin-4(1H)-one] came in with an IC50 of 1 to 10 µM.

`COc1ccc(CN2CCn3c(nc4c(c(C)nn4C4CCCC4)c3=O)C2)cc1` [Compound I-112, 1-Cyclopentyl-8-(4-methoxybenzyl)-3-methyl-6,7,8,9-tetrahydropyrazino[1,2-d]pyrazolo[3,4-d]pyrimidin-4(1H)-one]: the IC50 is more than 10 µM.

`CC(C)c1nn(C)c2c(=O)n3c(nc12)CNCC3` [Compound I-13, 3-Isopropyl-1-methyl-5,6,7,8-tetrahydropyrazino[1,2-a]pyrazolo[4,3-d]pyrimidin-10(1H)-one] gave a concentration for half-maximal inhibition (IC50) of more than 10 µM.

On to `COc1cc(N2Cc3nc4c(cnn4C(C)C)c(=O)n3CC2C)ccc1F` (racemic) [Compound I-152, (±)-8-(4-Fluoro-3-methoxyphenyl)-1-isopropyl-7-methyl-6,7,8,9-tetrahydropyrazino[1,2-a]pyrazolo[3,4-d]pyrimidin-4(1H)-one], for which the IC50 is less than 1 µM.

The compound `COc1ccc(CN2Cc3nc4c(cnn4C4CCCC4)c(=O)n3CC2C)cc1` (racemic) [Compound I-120, (±)-1-Cyclopentyl-8-(4-methoxybenzyl)-7-methyl-6,7,8,9-tetrahydropyrazino[1,2-a]pyrazolo[3,4-d]pyrimidin-4(1H)-one] registered a half-inhibitory concentration (IC50) of less than 1 µM.

The compound `CC(C)Cn1ncc2c(=O)n3c(nc21)CN(Cc1ccc(Cl)cc1)CC3` [Compound I-74, 8-(4-Chlorobenzyl)-1-isobutyl-6,7,8,9-tetrahydropyrazino[1,2-a]pyrazolo[3,4-d]pyrimidin-4(1H)-one] gave a half-inhibitory concentration (IC50) of less than 1 µM.

For `CC(C)c1n[nH]c2c(=O)n3c(nc12)C(Cc1ccccc1)NCC3` (racemic) [Compound I-12, (±)-5-Benzyl-3-isopropyl-5,6,7,8-tetrahydropyrazino[1,2-a]pyrazolo[4,3-d]pyrimidin-10(1H)-one], the half-maximal inhibitory concentration (IC50) was more than 10 µM.

As for `CC(C)Cn1ncc2c(=O)n3c(nc21)CN(c1cccc(Cl)c1)CC3` [Compound I-89, 8-(3-Chlorophenyl)-1-isobutyl-6,7,8,9-tetrahydropyrazino[1,2-a]pyrazolo[3,4-d]pyrimidin-4(1H)-one], the IC50 was less than 1 µM.

Regarding `CC(C)n1ncc2c(=O)n3c(nc21)CNC(c1ccccc1)C3` (racemic) [Compound I-106, (±)-1-isopropyl-7-phenyl-6,7,8,9-tetrahydropyrazino[1,2-a]pyrazolo[3,4-d]pyrimidin-4(1H)-one], the IC50 is more than 10 µM.

In the case of `CC(C)c1nnc2c(=O)n3c(nn12)CN(Cc1ccccc1)CC3` [Compound I-223, 7-Benzyl-3-isopropyl-8,9-dihydro-6H-pyrazino[2,1-c][1,2,4]triazolo[3,4-f][1,2,4]triazin-11(7H)-one], the IC50 was in the range of 1 to 10 µM.

For `CC(C)c1ncc2c(=O)n3c(nn12)CN(Cc1cncnc1)CC3` [Compound I-192, 3-Isopropyl-7-(pyrimidin-5-ylmethyl)-8,9-dihydro-6H-imidazo[5,1-f]pyrazino[2,1-c][1,2,4]triazin-11(7H)-one], the IC50 was more than 10 µM.

For the compound `CC1Cn2c(nc3c(cnn3C(C)C)c2=O)CN1c1ccc(Cl)cc1` (racemic) [Compound I-150, (±)-8-(4-Chlorophenyl)-1-isopropyl-7-methyl-6,7,8,9-tetrahydropyrazino[1,2-a]pyrazolo[3,4-d]pyrimidin-4(1H)-one], the IC50 was 1 to 10 µM.

As for `O=c1c2c(Nc3ccccc3)n[nH]c2nc2n1CCNC2` [Compound I-16, 3-(Phenylamino)-6,7,8,9-tetrahydropyrazino[1,2-a]pyrazolo[3,4-d]pyrimidin-4(1H)-one], the half-inhibitory concentration (IC50) was more than 10 µM.

Take `CC(C)Cc1nnc2c(=O)n3c(nn12)CN(Cc1ccccc1)CC3` [Compound I-214, 7-Benzyl-3-isobutyl-8,9-dihydro-6H-pyrazino[2,1-c][1,2,4]triazolo[3,4-f][1,2,4]triazin-11(7H)-one]: the half-maximal inhibitory concentration (IC50) lay within 1 to 10 µM.

`COCCn1ncc2c(=O)n3c(nc21)CN(Cc1ccc2c(c1)OCO2)CC3` [Compound I-163, 8-(Benzo[d][1.3]dioxol-5-ylmethyl)-1-(2-methoxyethyl)-6,7,8,9-tetrahydropyrazino[1,2-a]pyrazolo[3,4-d]pyrimidin-4(1H)-one]: the 50% inhibitory concentration (IC50) is more than 10 µM.

As for `CC(C)n1ncc2c(=O)n3c(nc21)CN(c1ccc(Cl)c(Cl)c1)CC3` [Compound I-171, 8-(3,4-Dichlorophenyl)-1-isopropyl-6,7,8,9-tetrahydropyrazino[1,2-a]pyrazolo[3,4-d]pyrimidin-4(1H)-one], the IC50 was less than 1 µM.

For the compound `CN1CCn2c(nc3c(cnn3-c3ccccc3)c2=O)C1` [Compound I-19, 8-Methyl-1-phenyl-6,7,8,9-tetrahydropyrazino[1,2-a]pyrazolo[3,4-d]pyrimidin-4(1H)-one], the IC50 is more than 10 µM.

On to `O=c1c2cnn(-c3ccccc3)c2nc2n1CCNC2Cc1ccccc1` (racemic) [Compound I-9, (±)-9-Benzyl-1-phenyl-6,7,8,9-tetrahydropyrazino[1,2-a]pyrazolo[3,4-d]pyrimidin-4(1H)-one], for which the half-maximal inhibitory concentration (IC50) was more than 10 µM.

`CC(C)Cc1nnc2c(=O)n3c(nn12)CN(Cc1ccccn1)CC3` [Compound I-224, 3-Isobutyl-7-(pyridin-2-ylmethyl)-8,9-dihydro-6H-pyrazino[2,1-c][1,2,4]triazolo[3,4-f][1,2,4]triazin-11(7H)-one] displayed an IC50 of 1 to 10 µM.

In turn, `O=c1c2cnn(C3CCOC3)c2nc2n1CCN(c1ccccc1)C2` (racemic) [Compound I-216, (±)-8-Phenyl-1-(tetrahydrofuran-3-yl)-6,7,8,9-tetrahydropyrazino[1,2-a]pyrazolo[3,4-d]pyrimidin-4(1H)-one] registered a 50% inhibitory concentration (IC50) of 1 to 10 µM.

`CCC1Cn2c(nc3c(cnn3C(C)C)c2=O)CN1Cc1ccc(Cl)cc1` (racemic) [Compound I-154, (±)-8-(4-Chlorobenzyl)-7-ethyl-1-isopropyl-6,7,8,9-tetrahydropyrazino[1,2-a]pyrazolo[3,4-d]pyrimidin-4(1H)-one] gave an IC50 of 1 to 10 µM.

Compound `O=c1c2nnc(C3CCCC3)n2nc2n1CCN(Cc1ccc(Cl)cc1)C2` [Compound I-132, 7-(4-Chlorobenzyl)-3-cyclopentyl-8,9-dihydro-6H-pyrazino[2,1-c][1,2,4]triazolo[3,4-f][1,2,4]triazin-11(7H)-one] came in with an IC50 of less than 1 µM.

Compound `CC1CN(Cc2ccccc2)Cc2nc3c(cnn3C3CCCC3)c(=O)n21` (racemic) [Compound I-101, (±)-8-Benzyl-1-cyclopentyl-6-methyl-6,7,8,9-tetrahydropyrazino[1,2-a]pyrazolo[3,4-d]pyrimidin-4(1H)-one] showed an IC50 of 1 to 10 µM.

Compound `COc1ccc(CN2CCn3c(nc4c(cnn4C4CCCC4)c3=O)C2)cc1` [Compound I-84, 1-Cyclopentyl-8-(4-methoxybenzyl)-6,7,8,9-tetrahydropyrazino[1,2-a]pyrazolo[3,4-d]pyrimidin-4(1H)-one] yielded an IC50 of less than 1 µM.

The IC50 is the point on the concentration scale where inhibition reaches its midpoint. A high value points to a need for much substance.
